Measured values: the supplement of paper PMC12463676, “Small-molecule dissolution of stress granules by redox modulation benefits ALS models” (Nature Chemical Biology, 2025)

What was measured:
potassium arsenate = compound: O=[As]([O-])(O)O.[K+] [potassium arsenate]; test: thermal stability z-score vs DMSO; higher = more thermally stabilized by treatment; conditions: HeLa; arsenate concentration 1 mM
Procedure: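 Cellular thermal proteome profiling in HeLa cells treated with 1 mM arsenate for 1 h (DMSO pretreatment), heated to ten temperatures (37-66.3 °C). Soluble protein was quantified by TMT mass spectrometry relative to DMSO controls; the thermal stability score was transformed to a z-score; mean of n = 3 experiments.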

lipoamide = compound: NC(=O)CCCCC1CCSS1 [lipoamide]; test: as above; conditions: HeLa, lipoamide concentration 100 µM
Procedure: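 Cellular thermal proteome profiling in HeLa cells. Cells were treated with 100 µM lipoamide for 1 h, with or without 1 mM arsenate for a further 1 h, then heated to ten temperatures (37-66.3 °C), and soluble protein was quantified by TMT mass spectrometry relative to 0.1% DMSO controls. The thermal stability score (sum of log2 fold changes minus the abundance score) was transformed to a z-score; mean of n = 3 experiments.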

[1] = arsenate co-treatment: 1 mM arsenate 1 h
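Further: each temperature applied for 3 min, abundance score taken as mean log2 fold change at the two lowest temperatures, z-score obtained by mean subtraction and division by SD.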

Sequence of UniProt P35790 (P35790 whole entry, looked up): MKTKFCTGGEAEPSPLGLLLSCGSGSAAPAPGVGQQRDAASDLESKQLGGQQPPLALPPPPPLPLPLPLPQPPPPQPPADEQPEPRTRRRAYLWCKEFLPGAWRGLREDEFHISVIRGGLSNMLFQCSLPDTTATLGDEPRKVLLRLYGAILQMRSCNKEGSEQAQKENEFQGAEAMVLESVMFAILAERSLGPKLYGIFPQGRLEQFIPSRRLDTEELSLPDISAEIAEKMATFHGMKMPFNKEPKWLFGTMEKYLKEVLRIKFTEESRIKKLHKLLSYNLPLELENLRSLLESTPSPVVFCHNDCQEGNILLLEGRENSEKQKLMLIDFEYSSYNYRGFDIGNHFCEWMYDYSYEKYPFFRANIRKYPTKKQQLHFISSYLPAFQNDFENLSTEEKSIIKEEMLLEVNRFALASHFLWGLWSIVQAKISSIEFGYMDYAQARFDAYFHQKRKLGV
Sequence of UniProt P83436 (P83436 whole entry): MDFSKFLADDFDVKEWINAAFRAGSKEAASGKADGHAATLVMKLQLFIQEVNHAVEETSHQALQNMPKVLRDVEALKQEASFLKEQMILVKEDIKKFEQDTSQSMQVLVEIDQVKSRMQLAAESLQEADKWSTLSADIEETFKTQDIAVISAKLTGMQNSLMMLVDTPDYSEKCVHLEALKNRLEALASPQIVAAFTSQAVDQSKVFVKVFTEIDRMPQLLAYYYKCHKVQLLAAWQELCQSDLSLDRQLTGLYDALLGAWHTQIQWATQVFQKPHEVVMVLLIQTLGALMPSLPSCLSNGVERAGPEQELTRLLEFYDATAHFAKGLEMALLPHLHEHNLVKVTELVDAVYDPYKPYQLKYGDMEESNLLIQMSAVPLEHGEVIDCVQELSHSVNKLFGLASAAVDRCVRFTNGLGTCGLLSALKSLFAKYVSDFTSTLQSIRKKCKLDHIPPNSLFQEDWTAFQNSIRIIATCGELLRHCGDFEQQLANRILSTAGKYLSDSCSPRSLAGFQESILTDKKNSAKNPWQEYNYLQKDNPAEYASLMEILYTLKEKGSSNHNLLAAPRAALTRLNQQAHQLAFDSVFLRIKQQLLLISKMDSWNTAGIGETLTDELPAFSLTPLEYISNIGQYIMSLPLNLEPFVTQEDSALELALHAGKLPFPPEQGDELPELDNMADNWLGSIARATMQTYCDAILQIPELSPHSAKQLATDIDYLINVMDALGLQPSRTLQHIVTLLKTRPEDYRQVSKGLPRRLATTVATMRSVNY
Sequence of UniProt O43491 (O43491 whole entry): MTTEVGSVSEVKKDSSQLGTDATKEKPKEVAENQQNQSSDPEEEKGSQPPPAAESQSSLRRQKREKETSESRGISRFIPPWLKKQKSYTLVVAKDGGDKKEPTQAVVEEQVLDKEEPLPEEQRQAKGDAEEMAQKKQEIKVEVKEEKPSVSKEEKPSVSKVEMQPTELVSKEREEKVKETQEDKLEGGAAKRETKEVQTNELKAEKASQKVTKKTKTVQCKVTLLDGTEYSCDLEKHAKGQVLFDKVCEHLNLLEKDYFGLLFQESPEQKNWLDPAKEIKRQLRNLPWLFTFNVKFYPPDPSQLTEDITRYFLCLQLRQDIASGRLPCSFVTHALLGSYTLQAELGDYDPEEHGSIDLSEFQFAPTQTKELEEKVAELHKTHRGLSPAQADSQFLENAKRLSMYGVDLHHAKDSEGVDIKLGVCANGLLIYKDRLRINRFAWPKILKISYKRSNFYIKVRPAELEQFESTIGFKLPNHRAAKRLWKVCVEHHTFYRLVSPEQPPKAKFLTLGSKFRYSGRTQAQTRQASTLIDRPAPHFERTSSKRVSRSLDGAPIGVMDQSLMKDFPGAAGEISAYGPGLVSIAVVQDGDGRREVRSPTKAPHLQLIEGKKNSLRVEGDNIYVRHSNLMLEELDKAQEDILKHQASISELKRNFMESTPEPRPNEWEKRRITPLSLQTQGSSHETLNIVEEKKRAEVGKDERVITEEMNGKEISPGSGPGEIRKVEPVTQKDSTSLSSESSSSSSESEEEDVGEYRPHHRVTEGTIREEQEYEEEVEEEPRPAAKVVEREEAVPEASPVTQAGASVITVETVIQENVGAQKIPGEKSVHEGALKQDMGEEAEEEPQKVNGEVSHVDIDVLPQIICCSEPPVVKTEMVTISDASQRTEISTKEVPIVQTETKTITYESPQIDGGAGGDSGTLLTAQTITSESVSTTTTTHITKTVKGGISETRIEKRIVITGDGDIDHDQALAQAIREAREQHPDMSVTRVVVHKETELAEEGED
Sequence of UniProt Q9C0C9 (Q9C0C9 whole entry): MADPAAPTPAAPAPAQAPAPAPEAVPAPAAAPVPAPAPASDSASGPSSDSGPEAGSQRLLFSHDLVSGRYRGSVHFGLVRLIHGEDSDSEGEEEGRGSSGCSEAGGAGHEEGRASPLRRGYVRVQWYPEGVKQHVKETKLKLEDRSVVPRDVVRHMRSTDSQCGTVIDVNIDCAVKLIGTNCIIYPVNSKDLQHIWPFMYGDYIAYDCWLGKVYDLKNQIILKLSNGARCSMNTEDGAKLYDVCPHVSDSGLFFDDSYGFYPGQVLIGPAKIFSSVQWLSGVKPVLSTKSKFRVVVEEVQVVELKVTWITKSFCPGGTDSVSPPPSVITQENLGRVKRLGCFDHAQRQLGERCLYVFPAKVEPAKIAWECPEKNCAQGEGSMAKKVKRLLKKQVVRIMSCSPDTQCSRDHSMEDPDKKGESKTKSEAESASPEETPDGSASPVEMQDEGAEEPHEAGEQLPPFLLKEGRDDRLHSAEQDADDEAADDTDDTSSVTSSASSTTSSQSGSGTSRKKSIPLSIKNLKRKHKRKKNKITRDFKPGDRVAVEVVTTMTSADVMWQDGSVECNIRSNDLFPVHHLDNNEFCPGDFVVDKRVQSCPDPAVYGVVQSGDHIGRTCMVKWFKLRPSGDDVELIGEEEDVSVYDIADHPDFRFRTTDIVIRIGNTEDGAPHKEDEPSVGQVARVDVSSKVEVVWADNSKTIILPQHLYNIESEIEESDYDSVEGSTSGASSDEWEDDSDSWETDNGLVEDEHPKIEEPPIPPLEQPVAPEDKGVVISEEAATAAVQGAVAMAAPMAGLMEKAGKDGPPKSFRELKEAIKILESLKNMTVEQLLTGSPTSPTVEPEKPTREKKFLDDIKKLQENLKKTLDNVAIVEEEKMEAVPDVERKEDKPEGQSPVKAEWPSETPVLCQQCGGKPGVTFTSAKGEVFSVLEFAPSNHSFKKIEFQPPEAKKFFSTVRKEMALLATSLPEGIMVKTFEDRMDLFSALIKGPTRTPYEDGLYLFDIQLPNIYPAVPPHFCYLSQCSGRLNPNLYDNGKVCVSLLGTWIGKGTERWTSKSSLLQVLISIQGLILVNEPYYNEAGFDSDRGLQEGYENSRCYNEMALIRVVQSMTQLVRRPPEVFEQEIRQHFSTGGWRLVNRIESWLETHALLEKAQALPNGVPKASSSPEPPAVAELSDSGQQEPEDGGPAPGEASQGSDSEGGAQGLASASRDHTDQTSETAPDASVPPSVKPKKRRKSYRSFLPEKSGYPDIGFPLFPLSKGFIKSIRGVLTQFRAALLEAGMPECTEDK
Sequence of UniProt P55212 (P55212 whole entry): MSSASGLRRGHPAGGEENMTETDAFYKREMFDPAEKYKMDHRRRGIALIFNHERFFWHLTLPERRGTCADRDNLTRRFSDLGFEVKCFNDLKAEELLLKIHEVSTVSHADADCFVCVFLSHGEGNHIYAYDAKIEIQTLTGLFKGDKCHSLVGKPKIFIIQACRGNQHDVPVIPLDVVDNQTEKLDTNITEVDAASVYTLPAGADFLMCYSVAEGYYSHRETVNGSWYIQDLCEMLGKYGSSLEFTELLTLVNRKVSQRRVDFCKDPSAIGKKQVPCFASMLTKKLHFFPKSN
Sequence of UniProt P34932 (P34932 whole entry): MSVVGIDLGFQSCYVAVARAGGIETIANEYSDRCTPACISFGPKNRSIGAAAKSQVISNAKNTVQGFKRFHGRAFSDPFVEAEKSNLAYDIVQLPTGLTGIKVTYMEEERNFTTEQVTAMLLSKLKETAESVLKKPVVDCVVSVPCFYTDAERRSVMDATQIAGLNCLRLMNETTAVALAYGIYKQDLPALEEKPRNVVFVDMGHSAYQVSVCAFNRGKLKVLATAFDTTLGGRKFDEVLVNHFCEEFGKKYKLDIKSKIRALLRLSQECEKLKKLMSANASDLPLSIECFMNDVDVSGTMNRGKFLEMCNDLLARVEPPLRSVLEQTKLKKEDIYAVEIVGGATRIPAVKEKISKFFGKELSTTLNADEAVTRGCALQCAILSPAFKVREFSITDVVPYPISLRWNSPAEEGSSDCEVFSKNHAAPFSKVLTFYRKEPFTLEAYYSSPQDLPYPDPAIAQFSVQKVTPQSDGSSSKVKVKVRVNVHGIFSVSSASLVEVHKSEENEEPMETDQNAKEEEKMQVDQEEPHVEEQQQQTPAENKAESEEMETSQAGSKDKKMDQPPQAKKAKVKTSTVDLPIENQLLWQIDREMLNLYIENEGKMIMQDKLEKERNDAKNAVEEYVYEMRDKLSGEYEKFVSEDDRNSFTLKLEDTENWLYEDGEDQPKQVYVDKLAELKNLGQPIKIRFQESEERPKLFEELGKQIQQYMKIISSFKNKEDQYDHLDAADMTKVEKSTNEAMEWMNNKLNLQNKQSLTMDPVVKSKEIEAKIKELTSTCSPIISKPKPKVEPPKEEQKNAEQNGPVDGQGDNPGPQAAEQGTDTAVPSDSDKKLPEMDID
Sequence of UniProt Q96AT9 (Q96AT9 whole entry): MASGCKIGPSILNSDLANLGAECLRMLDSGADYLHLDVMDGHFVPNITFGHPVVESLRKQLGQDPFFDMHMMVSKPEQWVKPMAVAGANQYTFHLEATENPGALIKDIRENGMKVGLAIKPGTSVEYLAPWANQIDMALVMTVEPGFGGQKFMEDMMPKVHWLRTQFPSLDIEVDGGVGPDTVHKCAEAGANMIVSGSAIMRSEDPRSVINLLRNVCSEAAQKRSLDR
Sequence of UniProt O75817 (O75817 whole entry): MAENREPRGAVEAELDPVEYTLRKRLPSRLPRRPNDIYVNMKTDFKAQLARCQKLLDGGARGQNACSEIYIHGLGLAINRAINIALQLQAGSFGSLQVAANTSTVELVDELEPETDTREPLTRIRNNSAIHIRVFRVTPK

Target	thermal stability z-score (potassium arsenate)	thermal stability z-score (lipoamide; [1])	thermal stability z-score (lipoamide; arsenate co-treatment: none)
ANP32B (UniProt Q92688)	-0.513	-0.711	-0.129
ERP29 (UniProt P30040)	0.32	-0.51	-0.193
DOCK11 (UniProt Q5JSL3)	-0.755	-0.016	0.0791
CLCC1 (UniProt Q96S66)	0.408	-5.63	-5.9
IQSEC1 (UniProt Q6DN90)	0.159	0.165	0.212
DCTD (UniProt P32321)	-0.736	0.038	-0.504
RAD17 (UniProt O75943)	-0.848	-0.324	-0.278
LRP1 (UniProt Q07954)	-0.0899	-1.1	-1.01
IRF2BP1 (UniProt Q8IU81)	-0.228	-0.196	-0.13
CPNE8 (UniProt Q86YQ8)	-0.648	0.773	1.11
LPP (UniProt Q93052)	-5.37	-0.407	-0.444
COA3 (UniProt Q9Y2R0)	0.126	0.463	0.725
LMNB1 (UniProt P20700)	0.742	2.11	-0.38
SRSF5 (UniProt Q13243)	-1.82	0.765	0.508
UBE2O (UniProt Q9C0C9)	0.509	0.0608	0.277
POP7 (UniProt O75817)	0.592	-0.211	0.214
SIPA1 (UniProt Q96FS4)	0.319	-0.295	0.0519
MTSS1L (UniProt Q765P7)	-0.228	0.179	0.0525
CDK5RAP3 (UniProt Q96JB5)	0.406	-0.0376	0.162
IKBKB (UniProt O14920)	-0.426	-0.0799	-0.108
MPI (UniProt P34949)	0.187	-0.333	-0.379
RDH11 (UniProt Q8TC12)	0.385	-0.514	0.808
POLR3E (UniProt Q9NVU0)	-0.126	0.0246	0.108
WWC2 (UniProt Q6AWC2)	-0.129	-0.0127	-0.0518

Target	thermal stability z-score (potassium arsenate)	thermal stability z-score (lipoamide; [1])	thermal stability z-score (lipoamide; arsenate co-treatment: none)
METTL13 (UniProt Q8N6R0)	0.0691	-0.507	-0.621
NCSTN (UniProt Q92542)	-0.207	-0.537	-0.624
MRPL20 (UniProt Q9BYC9)	-0.00694	0.411	0.239
PLOD1 (UniProt Q02809)	1.2	-4.26	-3.77
GLTP (UniProt Q9NZD2)	0.72	0.912	0.581
ASL (UniProt P04424)	-0.112	0.153	-0.627
RPE (UniProt Q96AT9)	-0.0195	0.536	0.285
PTPRF (UniProt P10586)	-0.656	-0.381	-0.381
KPNB1 (UniProt Q14974)	0.0471	-0.211	0.374
PITPNA (UniProt Q00169)	-0.787	0.386	0.434
UNC93B1 (UniProt Q9H1C4)	0.487	0.172	-0.000713
NFKBIB (UniProt Q15653)	0.948	-0.344	-0.271
EPB41L2 (UniProt O43491)	0.128	-0.283	-0.0411
PPP2R2D (UniProt Q66LE6)	0.0879	-0.473	-0.0425
MED14 (UniProt O60244)	-0.2	-0.0798	-0.176
CHKA (UniProt P35790)	-1.4	0.498	0.357
TAX1BP3 (UniProt O14907)	0.424	0.0819	-0.232
CUTA (UniProt O60888)	-0.0462	1.1	0.709
RRP7A (UniProt Q9Y3A4)	-0.216	0.108	-0.213
PDE4DIP (UniProt Q5VU43)	-0.0411	0.0302	-0.0224
TSC1 (UniProt Q92574)	-0.0936	0.103	-0.0297
CKAP4 (UniProt Q07065)	-0.938	-3.96	-2.84
WARS2 (UniProt Q9UGM6)	-0.284	-0.731	-0.143
UQCRH (UniProt P07919)	0.58	1.35	1.45

Target	thermal stability z-score (potassium arsenate)	thermal stability z-score (lipoamide; [1])	thermal stability z-score (lipoamide; arsenate co-treatment: none)
CASP6 (UniProt P55212)	0.158	1.05	1.33
TMEM245 (UniProt Q9H330)	1.86	1.28	0.28
RSPRY1 (UniProt Q96DX4)	-0.152	0.302	0.576
NDUFS3 (UniProt O75489)	-0.466	-0.384	0.139
ZCCHC8 (UniProt Q6NZY4)	-0.318	0.464	0.344
SHMT1 (UniProt P34896)	0.764	0.374	-0.0345
SAP30BP (UniProt Q9UHR5)	1.03	0.884	0.612
CASK (UniProt O14936)	-0.0604	0.388	0.281
DHX16 (UniProt O60231)	-1.81	-0.223	0.345
SETD1A (UniProt O15047)	-0.413	0.233	-0.516
MPZL1 (UniProt O95297)	0.179	0.0579	0.206
HSPA4 (UniProt P34932)	-0.388	0.102	0.475
STK26 (UniProt Q9P289)	1.4	0.681	1.24
RIC8A (UniProt Q9NPQ8)	0.476	-0.305	-0.238
NPR1 (UniProt P16066)	0.119	-0.594	-0.153
COG7 (UniProt P83436)	0.224	-0.825	-0.928
INPP5A (UniProt Q14642)	0.656	-1.28	-0.144
MRPS10 (UniProt P82664)	-0.309	-0.41	-0.358
LIPA (UniProt P38571)	0.119	-0.674	-0.352
GHITM (UniProt Q9H3K2)	-0.0999	-0.161	-0.193
HPCAL1 (UniProt P37235)	0.342	1.09	1.31
VEZT (UniProt Q9HBM0)	-0.349	-0.758	-0.707
PSPH (UniProt P78330)	0.056	0.359	0.393
